Data published in BindingDB's records for doi:10.1021/jm0607451 (Wyeth Research, 2006).

What follows are compounds tested against Pepsin A-4 (Homo sapiens, UniProt P0DJD7) (assay: FRET-based Peptide Cleavage Assay). Conditions: pH 4.5; 22 °C.
Chain of Pepsin A-4 (P0DJD7 whole entry): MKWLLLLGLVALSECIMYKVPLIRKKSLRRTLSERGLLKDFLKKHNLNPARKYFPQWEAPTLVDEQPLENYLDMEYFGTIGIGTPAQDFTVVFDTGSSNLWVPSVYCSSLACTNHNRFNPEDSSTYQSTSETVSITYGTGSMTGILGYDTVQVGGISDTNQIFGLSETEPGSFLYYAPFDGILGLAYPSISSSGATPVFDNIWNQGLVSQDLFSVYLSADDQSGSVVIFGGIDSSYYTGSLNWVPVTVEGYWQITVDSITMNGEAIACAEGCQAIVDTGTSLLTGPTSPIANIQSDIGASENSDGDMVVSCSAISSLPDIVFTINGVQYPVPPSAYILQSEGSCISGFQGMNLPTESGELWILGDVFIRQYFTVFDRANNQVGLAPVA

| IC50 [µM] | Structure (SMILES) |
| --- | --- |
| > 50 | CC(=O)c1ccc(Oc2ccc(-c3ccc(-c4ccccc4Cl)n3CC(=O)NC(=N)N)cc2)cc1 [2-[2-(2-chlorophenyl)-5-[4-(4-acetylphenoxy)phenyl]-1H-pyrrol-1-yl]-N-(diaminomethylidene)acetamide] |
| > 50 | NC(N)=NC(=O)Cn1c(-c2ccccc2)ccc1C12CC3CC(CC(C3)C1)C2 [2-[2-(adamantan-1-yl)-5-phenyl-1H-pyrrol-1-yl]-N-(diaminomethylidene)acetamide] |
| > 50 | N/C(=N/C(=O)Cn1c(-c2ccccc2)ccc1C12CC3CC(CC(C3)C1)C2)NCCCO [2-[2-(adamantan-1-yl)-5-phenyl-1H-pyrrol-1-yl]-N-[(1Z)-amino[(3-hydroxypropyl)amino]methylidene]acetamide] |
| > 50 | CCCOc1ccc(-c2ccc(-c3ccccc3Cl)n2CC(=O)NC(=N)NCCCO)cc1 [N-[(1Z)-amino[(3-hydroxypropyl)amino]methylidene]-2-[2-(2-chlorophenyl)-5-(4-propoxyphenyl)-1H-pyrrol-1-yl]acetamide] |
